The conditions of series [1]: cited from earlier work; for change of serum concentrations of ARI and AM versus control group / effect on D-ARI concentration / higher mean dose-adjusted concentration of ARI: TDM database; for effect on D-ARI concentration / higher mean dose-adjusted concentration of ARI: ARI combined with the antidepressant.
For series [2] the following is noted: cited from earlier work.
The nature of series [3]: Pharmacokinetic drug interaction study: aripiprazole single dose alone or after 6-day bupropion pretreatment, LC-MS/MS quantification, non-compartmental analysis. The conditions noted are these: for Vz_F / AUC(0-inf) / CL/F / Cmax / MRT / Tmax / k el: aripiprazole in rat plasma; for Vz_F / AUC(0-t) / AUC(0-inf) / CL/F / Cmax / MRT / Tmax / k el / half-life: mean ± S.D.; for AUC(0-t) / AUC(0-inf) / CL/F / Cmax / MRT / Tmax / k el / half-life: male, Wistar albino, rat, plasma, po, 8 mg/kg; for AUC(0-t): AUC0–30, aripiprazole in rat plasma; for AUC(0-inf): AUC0–∞; for CL/F: Cl_F; for k el: kel; for half-life: t1/2, aripiprazole in rat plasma.
Protocol: The suspension was vortex-mixed before each administration. We considered 15 mg ARI a usual therapeutic dose in humans. We multiplied by 10 the dose for rats/kg, but a higher dose of 8 mg/kg body weight (b.w.) was chosen to be suitable for detection in rat plasma, considering the analytical method sensitivity. […] We administered 43 mg/kg b.w. in rats, multiplying the target dose in humans of 300 mg/day by 10.
Twenty-four Wistar albino male rats were divided into two groups.
The collection of blood samples was carried out using the BASi Culex ABC®-Automatic Blood Collector device (BASi, West Lafayette, IN, USA). This facilitated the collection of exact volumes per sample and at exact times post-administration. One day prior to blood sample collection, rats in both groups went through a surgical procedure consisting of a cannula insertion on the femoral vein under intramuscular anesthesia (0.1 mL/100 g b.w. of 1:1 ketamine and xylazine solution), which allowed the device to have access to the rats’ bloodstream. The excess blood drawn on the catheter was returned to the animal along with saline, replacing the volume of blood collected to avoid fluid depletion.
Blood samples, 200 μL each, were automatically drawn in heparinized Eppendorf tubes at 10, 20, 30, 45 min, 1, 1.5, 2, 2.5, 3, 4, 6, 8, 10, 12, 16, 20, 24 and 30 h after ARI single-dose administration in the two experimental groups, and they were immediately placed at −20 °C until further analysis.
Samples were precipitated using acetonitrile. For a 0.1 mL blood sample, 0.3 mL of acetonitrile were added. After the samples were vortex-mixed with IKA Vortex 2 (1000 rpm) for 10 s and centrifuged for 5 min at 10,000 rpm using a Sigma 3-30KS centrifuge (9168× g), the supernatant was injected into the HPLC system.
For concomitant quantification of ARI and D-ARI, a validated reverse-phase liquid chromatography coupled with tandem mass spectrometry (LC-MS/MS) method was developed. The HPLC system Agilent 1100 series with a binary pump, autosampler and thermostat (Agilent Technologies, Santa Clara, CA, USA) was used. The Bruker Ion Trap SL (Bruker Daltonics GmbH, Bremen, Germany) was used for detection. […] Haloperidol spiked into the thawed blood samples was used as an internal standard. The mobile phase consisted of water and 0.3% (m/v) formic acid as eluent A and acetonitrile as eluent B, eluted in a linear gradient (start with 20% acetonitrile, up to 2.5 min 38% acetonitrile, keep at 38% acetonitrile until 4.2 min, re-equilibrate with 20% acetonitrile for 2 min). The injection volume was 5 μL, the flow rate was 1 mL/min and the thermostat temperature was set at 40 °C. The MS detection was in multiple reaction monitoring mode (MRM), and the ESI-MS spectra were recorded in positive ion mode. The following mass transitions were used for analyte quantification: m/z 448 → m/z 285 for ARI, m/z 446 → m/z 285 for D-ARI and m/z 376 → m/z 165 for haloperidol. In these chromatographic conditions, the retention times were 2.80 min for haloperidol, 3.15 min for D-ARI and 3.55 min for ARI, respectively. The concentrations of the two analytes were determined by the instrument data system (QuantAnalysis software, Bruker Daltonics GmbH, Bremen, Germany) using peak area ratios versus concentration ratios of each analyte versus internal standard. The calibration curve model was determined for five calibration series by the linear least squares analysis, weighted (1/y2). […] The matrix effects were measured by comparing the response of the spiked plasma with the response of standards in solvent with the same concentration of ARI and D-ARI as in plasma, and for the measurement of the absolute recovery, a spike and a post-spiked sample were compared [31, 32].

The mark [4] stands for this setting: co-medication, Japanese psychiatric patients.
[5] abbreviates: ARI 8 mg/kg single dose after 6-day BUP 43 mg/kg pretreatment (test, n = 12).
Where [6] appears, read: ARI 8 mg/kg single dose alone (reference, n = 12).
Setting [7] is: rats, after BUP repeated doses vs ARI alone.

The values that follow come from PMC11596549 (Metabolites, 2024).

The structures appear in SMILES notation. Read-outs that look alike come from different tables or passages of the source. A value given as a limit tells only on which side of the number the result lay.

Take `COc1ccc(C(CN(C)C)C2(O)CCCCC2)cc1` (centres unmarked) [venlafaxine]: the “change of serum concentrations of ARI and AM versus control group” value (from here on “change … of ARI and AM versus control group”) in series [1] (co-medication) is listed as “no significant influence”.

Take `Fc1ccc([C@@H]2CCNC[C@H]2COc2ccc3c(c2)OCO3)cc1` [paroxetine]: in series [1], the “effect on D-ARI concentration” value is recorded as “no effect” and the “higher mean dose-adjusted concentration of ARI” value is 45%. For the same molecule, in series [1] (setting [4]), the “increase of the plasma concentrations of ARI” value is given as 1.7 fold and the “increase of the plasma concentrations of the active moiety (AM)” value is recorded as 1.5 fold.

As to `CC(NC(C)(C)C)C(=O)c1cccc(Cl)c1` (centres unmarked) [BUP, Bupropion], the oral bioavailability in series [2] is reported as 90%.

Take `CNCC[C@H](Oc1cccc2ccccc12)c1cccs1` [duloxetine]: in series [1] (large TDM database, co-medication), the “increase of the plasma concentrations of ARI” value is recorded as 54.2%.

For `CNCCC(Oc1ccc(C(F)(F)F)cc1)c1ccccc1` (centres unmarked) [fluoxetine], in series [1], the “effect on D-ARI concentration” value is recorded as “no effect” and the “higher mean dose-adjusted concentration of ARI” value is 45%. Besides, in series [1] (routine TDM service, concomitant use), the “increase of the C/D ratio of ARI compared to ARI monotherapy” value is listed as 44%.

Regarding `CN[C@H]1CC[C@@H](c2ccc(Cl)c(Cl)c2)c2ccccc21` [sertraline], the “change … of ARI and AM versus control group” value in series [1] (co-medication) is “no significant influence”.

Consider `O=C1CCc2ccc(OCCCCN3CCN(c4cccc(Cl)c4Cl)CC3)cc2N1` [Aripiprazole], for which, in series [2], the “absolute oral bioavailability (F)” value is 87%, the “binding to plasma proteins” value is recorded as over 99%, the “time to reach maximum plasma concentration” value was 3 to 5 h and the “time to reach steady-state” value is listed as 14 days. For the same molecule, the “elimination t1/2” value in series [2] (poor metabolizers (PMs)) is given as 146 h. Further, in series [3] (setting [5]), the Vz_F turned out to be 20.67 ± 27.53 L/kg; the AUC(0-t) (commonly exposure summed from dosing to a finite time, without extrapolation to infinity) was 5390 ± 2980 ng·h/mL; the AUC(0-inf) – broadly, total exposure, with the tail of the curve extrapolated – stood at 6310 ± 2980 ng·h/mL; the CL/F (usually the apparent clearance, not corrected for the fraction that reaches the circulation) was 26.2 mL/min/kg. Besides, in series [3] (setting [5]), the Cmax (commonly the peak of the concentration-time curve) stood at 472 ± 217 ng/mL; the MRT (usually the average time that molecules of a dose stay in the body) came out at 19.2 ± 27.7 h; the Tmax (in general, the time at which the peak concentration occurs) was 6.92 ± 2.47 h; the k el is 5e-05 s⁻¹. Moreover, in series [3] (setting [5]), the half-life (as a rule, the time needed for the level to fall by half in the phase considered) was 11.5 ± 20.2 h. In series [3] (setting [6]), the Vz_F is given as 121.64 ± 143.94 L/kg, the exposure AUC(0-t) amounted to 1110 ± 931 ng·h/mL, the AUC(0-inf) is 1120 ± 931 ng·h/mL and the CL/F was 248 mL/min/kg. Also, in series [3] (setting [6]), the Cmax worked out at 240 ± 169 ng/mL, the MRT turned out to be 4.63 ± 1.78 h, the Tmax was 1.65 ± 0.8 h and the k el is 4.17e-05 s⁻¹. In addition, the half-life in series [3] (setting [6]) was 5.56 ± 3.13 h. Also, in series [3] (setting [7]), the “decrease of the apparent systemic clearance of ARI” value is on record as “over 9 fold”, the “increase of the mean AUC0–30 of ARI” value stood at 4.85 fold, the “increase of the mean AUC0–∞ of ARI” value turned out to be 5.65 fold and the “increase of the mean Cmax of ARI” value worked out at 96.76%. Also, in series [3] (rats, after BUP repeated doses vs ARI alone, listed as ARI), the “increase of the mean Cmax of ARI” value is 2 fold.

Take `CN(C)CCC[C@@]1(c2ccc(F)cc2)OCc2cc(C#N)ccc21` [Escitalopram]: the “change … of ARI and AM versus control group” value in series [1] (co-medication) is reported as “slight but statistically significant”. For the same molecule, the “change of the systemic exposure to the AM” value in series [1] (co-medication with ARI) was “did not significantly change”.
